Reference: patent US20060121047A1, “Use of hmgb polypetides for increasing immune responses” (priority 2002, published 2006)

B1: wild-type HMGB1: Recombinant full length human HMGB1, SEQ ID NO: 18 (protein, listed as Homo sapiens)
chain: MGKGDPKKPTGKMSSYAFFVQTCREEHKKKHPDASVNFSEFSKKCSERWKTMSAKEKGKFEDMAKADKARYEREMKTYIPPKGETKKKFKDPNAPKRLPSAFFLFCSEYRPKIKGEHPGLSIGDVAKKLGEMWNNTAADDKQPYEKKAAKLKEKYEKDIAAYRAKGKPDAAKKGVVKAEKSKKKKEEEEDEEDEEDEEEEEDEEDEEDEEEDDDDE
B2: A box: Human HMGB1 mutant containing only the A box (amino terminus + A box), SEQ ID NO: 21 (protein, listed as Homo sapiens)
chain: MGKGDPKKPTGKMSSYAFFVQTCREEHKKKHPDASVNFSEFSKKCSERWKTMSAKEKGKFEDMAKADKARYEREMKTYIPPKGET
B3: carboxyl-truncated HMGB1: Human HMGB1 mutant in which the carboxy terminus was deleted, SEQ ID NO: 19 (protein, listed as Homo sapiens)
chain: MGKGDPKKPTGKMSSYAFFVQTCREEHKKKHPDASVNFSEFSKKCSERWKTMSAKEKGKFEDMAKADKARYEREMKTYIPPKGETKKKFKDPNAPKRLPSAFFLFCSEYRPKIKGEHPGLSIGDVAKKLGEMWNNTAADDKQPYEKKAAKLKEKYEKDIAAYRAKGKPDAAKKGVVKAEKSK

Columns and labels:
[1] = test system: Murine macrophage-like RAW 264.7 cells; assay: TNF release from RAW 264.7 cells (L929 cytotoxicity bioassay); type: cell-based; details: for TNF release by synthetic peptide fragment of the B box: 10 μg/ml synthetic peptide, 10 hours (FIG. 3); for TNF release: 1 μg/ml protein, 8 hours, RAW 264.7 cells (FIG. 1)
Experimental: Murine macrophage-like RAW 264.7 cells (American Type Culture Collection, Rockville, Md.) were cultured in RPMI 1640 medium (Life Technologies, Grand Island N.Y.) supplemented with 10% fetal bovine serum (Gemini, Catabasas, Calif.), penicillin and streptomycin (Life Technologies) and were used at 90% confluence in serum-free Opti-MEM I medium (Life Technologies, Grand Island, N.Y.). […] Polymyxin B was not used in experiments of synthetic peptide studies.
TNF release was measured by a standard murine fibroblast L929 (ATCC, American Type Culture Collection, Rockville, Md.) cytotoxicity bioassay (Bianchi et al., Journal of Experimental Medicine 183:927-936, 1996) with the minimum detectable concentration of 30 pg/ml. Recombinant mouse TNF was obtained from R&D system Inc., (Minneapolis, MN). Murine fibroblast L929 cells (ATCC) were cultured in DMEM (Life Technologies, Grand Island, N.Y.) supplemented with 10% fetal bovine serum (Gemini, Catabasas, Calif.), penicillin (50 units/ml) and streptomycin (50 μg/ml) (Life Technologies) in a humidified incubator with 5% CO2.
The effect of the mutants on TNF release from Murine macrophage-like RAW 264.7 cells (ATCC) was carried out as follows. RAW 264.7 cells were cultured in RPMI 1640 medium (Life Technologies, Grand Island N.Y.) supplemented with 10% fetal bovine serum (Gemini, Catabasas, Calif.), penicillin and streptomycin (Life Technologies). Polymyxin (Sigma, St. Louis, Mo.) was added at 100 units/ml to suppress the activity of any contaminating LPS. Cells were incubated with 1 μg/ml of full length (wild-type) HMGB1 and each HMGB1 mutant protein in Opti-MEM I medium for 8 hours, and conditioned supernatants (containing TNF which had been released from the cells) were collected and TNF released from the cells was measured by a standard murine fibroblast L929 (ATCC) cytotoxicity bioassay (Bianchi et al., supra) with the minimum detectable concentration of 30 pg/ml. Recombinant mouse TNF was obtained from R & D Systems Inc., (Minneapolis, Minn.) and used as control in these experiments. Data in FIG. 1 are all presented as mean+SEM unless otherwise indicated. (=6−10).
To further examine the effect of HMGB1 B box on cytokine production, varying amounts of HMGB1 B box were evaluated for the effects on TNF, IL-1B, and IL-6 production in murine macrophage-like RAW 264.7 cells. Conditioned media were harvested and measured for TNF, IL-1β and IL-6 levels. TNF levels were measured as described herein, and IL-1β and IL-6 levels were measured using the mouse IL-1β and IL-6 enzyme-linked immunosorbent assay (ELISA) kits (R&D System Inc., Minneapolis, 1) and N>5 for all experiments.
The kinetics of B box-induced TNF release was also examined. TNF release and TNF mRNA expression was measured in RAW 264.7 cells induced by B box polypeptide or GST tag polypeptide only used as a control (vector) (10 μg/ml) for 0 to 48 hours. Supernatants were analyzed for TNF protein levels by an L929 cytotoxicity assay (N=3-5) as described herein. For mRNA measurement, cells were plated in 100 mm plate and treated in Opti-MEM I medium containing B box polypeptide or the vector alone for 0, 4, 8, or 24 hours, as indicated in FIG. 2D. The vector only sample was assayed at the 4 hour time point. Cells were scraped off the plate and total RNA was isolated by RNAzol B method in accordance with the manufacturer's instructions (Tel-Test “B”, Inc., Friendswood, Tex.). TNF (287 bp) was measured by RNase protection assay (Ambion, Austin, Tex.). Equal loading and the integrity of RNA was verified by ethidium bromide staining of the RNA sample on agarose-formaldehyde gel. […] TNF mRNA expression was maximal at 4 hours and decreased at 8 and 24 hours. […] A similar study was carried out measuring TNF protein released from RAW 264.7 cells 0, 4, 8, 24, 32 or 48 hours after administration of B box or vector only (GST tag), using the L929 cytotoxicity assay described herein. […] Data are representative of three separate experiments. […]

[2] = test system: RAW 264.7 cells; details: polymyxin B alone, 100-1,000 units/ml; cited from earlier work

| Molecule | TNF release by synthetic peptide fragment of the B box [1] | TNF release [1] | also measured |
| --- | --- | --- | --- |
| 60-74: Synthetic peptide, amino acids 60-74 of the HMGB1 B box (SEQ ID NO: 20) (AAKLKEKYEKDIAAY; listed as Homo sapiens) | did not induce TNF release |  |  |
| Polymyxin B |  |  | cell viability [2]: did not influence cell viability |
| 16-25: Synthetic peptide, amino acids 16-25 of the HMGB1 B box (SEQ ID NO: 20) (LFCSEYRPKI; listed as Homo sapiens) | did not induce TNF release |  |  |
| fkdpnapkrlpsafflfcse (FKDPNAPKRLPSAFFLFCSE; listed as Homo sapiens) [1-20-mer] | TNF-stimulating activity was retained |  | TNF stimulating activity relative to full length synthetic B box (1-74-mer) or full length HMGB1 ([1]; peptide 10 μg/ml, 10 hours): less potent |
| 45-64: Synthetic peptide, amino acids 45-64 of the HMGB1 B box (SEQ ID NO: 20) (WNNTAADDKQPYEKKAAKLK; listed as Homo sapiens) | did not induce TNF release |  |  |
| 30-49: Synthetic peptide, amino acids 30-49 of the HMGB1 B box (SEQ ID NO: 20) (PGLSIGDVAKKLGEMWNNTA; listed as Homo sapiens) | did not induce TNF release |  |  |
| B1 |  | significantly stimulated TNF release |  |
| B2 |  | only weakly activated TNF release |  |
| B3 |  | significantly stimulated TNF release |  |
